In patent US7781393B2, “Methods for inhibiting tumor cell growth” (Dana-Farber Cancer Institute, Inc., priority 2004, dated 2010):

Columns and labels:
Format in all cases: cell-based, human
[1] = system: VEGF secretion by myeloma cells and BMSCs; assay: VEGF ELISA, MM cells and BMSCs alone and in co-culture; conditions: 500 nM for 24 hrs
Experimental: (§1) Flow cytometric analyses for IGF-1R, and IGF-2R were performed as previously described on a EPICS-XL-MCL flow cytometer (Beckman Coulter). Previously described protocols were applied for immunoblotting analyses; TRAP telomerase activity assay; 20S proteasome chymotryptic activity assay; DNA binding activity ELISAs for quantitative assessments of NF-κB and HIF-1a transcriptional activities. VEGF and IGF-1 ELISAs were performed according to manufacturer's instructions (R&D Systems, Minneapolis, Minn.).

MM-1S cells [2] = assay: Immunoblotting of anti-apoptotic signaling cascades; conditions: 500 nM, serum-containing medium
Experimental: as §1

MM cell lines = assay: MTT colorimetric survival assay, serum-stimulated MM cell lines
Experimental: (§2) Cell survival of IGF-1R inhibitor-treated cells was examined using the 3-(4,5-Dimethylthiazol-2-yl)-2,5-Diphenyltetrazolium Bromide (MTT) calorimetric assay. […] At the end of each treatment, cells were incubated with 1 mg/ml MTT for 4 hours at 37° C.; a mixture of isopropanol and 1N HCl (23:2, v/v) was then added under vigorous pipetting to dissolve the formazan crystals. Dye absorbance (A) in viable cells was measured at 570 nm, with 630 nm as a reference wavelength. Cell survival was estimated as a percentage of the value of untreated controls. All experiments were repeated at least three times, and each experimental condition was repeated at least in quadruplicate wells in each experiment.

MM-1S cells [3] = assay: In vitro sensitization of MM-1S cells to anti-cancer drugs; conditions: ADW-742 750 nM or α-IR3 2 μg/ml for final 24 hours
Experimental: Cells were cultured in the presence of 10% FBS, and results are expressed as mean ±SD of 3 independent experiments.
as §2

primary MM tumor cells = assay: MTT survival assay, short-term culture of primary MM tumor cells; conditions: all primary patient samples tested
Description: The dexamethasone (Dex)-sensitive parental line MM-1S and its Dex-resistant subline MM-1R cells were kindly provided by Dr Steven Rosen (Northwestern University, Chicago, Ill.); the chemo-sensitive parental MM cell line RPMI-8226/S, and its chemo-resistant sublines RPMI-8226/Dox40 (doxorubicin-resistant), RPMI-8226/MR20 (mitoxantrone-resistant), RPMI-8226/LR5 (melphalan-resistant) cells were kindly provided by Dr William Dalton (lee Moffitt Cancer Center, Tampa, Fla.); the OCI-My5 cells were provided by Dr Meissner (University of Ontario, Toronto, Canada); the EJM, LP-1, KMM1, K620, OPM-1, and OPM-2 cells were provided by Dr Leif Bergsagel; INA-6 cells were provided by Renate Burger (University of Erlangen-Nuernberg, Germany); XG-1 cells were obtained from Dr Pierfrancesco Tassone (University of Magna Grecia, Italy); NCI-H929 and U266 cells were purchased from American Type Cell Culture (ATCC); MM-1S-myrAkt and MM-1S-Bcl-2 cells were established by stable transfection of MM-1S cells with constructs encoding for constitutively active myristoylated form of Akt and for Bcl-2, respectively. […] Purity (>95%) was assessed by both morphology and flow cytometry (Becton-Dickinson FACSort, Franklin Lakes, N.J.). […]

Nc1ncnc2c1c(-c1cccc(OCc3ccccc3)c1)cn2[C@H]1C[C@H](CN2CCCC2)C1 [ADW-742, trans-5-(3-benzyloxy-phenyl)-7-(3-pyrrolidin-1-ylmethyl-cyclobutyl)-7H-pyrrolo[2,3-d]pyrimidin-4-ylamine]
constitutive and co-culture-induced secretion of VEGF [1]: suppresses | Akt, MEK1/2 and FKHRL-1 phosphorylation (MM-1S cells [2]): early suppression | intracellular levels of Akt, Bmx, IKK-α and RANKL (MM-1S cells [2]): decrease | IC50 (MM cell lines; Homo sapiens, values generally in this range, 0-10 μM for 72 hours, read-out: IC50, serum-induced cell growth of MM cell lines): 100 to 500 nM | activity against MM cell lines with known resistance to conventional or investigational anti-cancer agents (MM cell lines; also primary tumor cells from MM patients with multi-drug resistant disease): active | sensitivity of MM-1S cells to dexamethasone (MM-1S cells [3]; dexamethasone 0.1 μM 72 hrs): enhances the sensitivity | sensitivity of MM-1S cells to doxorubicin (MM-1S cells [3]; doxorubicin 50 ng/mL 48 hrs): enhance the sensitivity | sensitivity of MM-1S cells to melphalan (MM-1S cells [3]; melphalan 1 μM 48 hrs): enhance the sensitivity | serum-induced growth of primary MM patient samples (primary MM tumor cells): completely suppresses
